Data: PubChem BioAssay AID1508612

Assay: passive permeability, PAMPA, ADME assay (AID 1508612)
Conditions: pH 7.4, 30.0 min, 50.0 µM

SMILES	Papp
C[C@H]1CCC[C@H](O)CCC/C=C/c2cc(O)cc(O)c2C(=O)O1	864 ×10⁻⁶ cm/s
COc1ccc2[nH]c(=O)c(-c3noc(-c4ccc(F)cc4)n3)cc2c1	63 ×10⁻⁶ cm/s
Cc1cc(-c2nnc3n2CCCCC3)c(C)n1-c1cccc(C(F)(F)F)c1	> 1000 ×10⁻⁶ cm/s
c1ccc2c(Nc3ccn[nH]3)nc(-c3ccncc3)nc2c1	880 ×10⁻⁶ cm/s
COc1ccc(-c2ccc3nc(-c4cc(C)cc(C)c4)oc3c2)c(OC)c1OC	< 1 ×10⁻⁶ cm/s
Cc1cccc(-n2cnc3cc(C(=O)N4CCCCCC4)ccc32)c1	> 1000 ×10⁻⁶ cm/s
NC(=O)C1CCN(c2nc(-c3ccccc3[N+](=O)[O-])cs2)CC1	109 ×10⁻⁶ cm/s
CCCCCCN(CCCCCC)C(=O)Cc1c(-c2ccc(F)cc2)[nH]c2ccccc12	11.7 ×10⁻⁶ cm/s
Cc1nc(N)nc2ccccc12	69.7 ×10⁻⁶ cm/s
COc1ccccc1-c1nc(NCc2cnc(C)cn2)c2ccccc2n1	> 1000 ×10⁻⁶ cm/s
CCNC(=O)Nc1ncc(-c2cc(-c3c(C)cc(OC)cc3C)nc(-c3cnccn3)n2)s1	762 ×10⁻⁶ cm/s
Cn1cnc(S(=O)(=O)Nc2cnccc2C(=O)Nc2nc(-c3ccccc3)cs2)c1	1.1 ×10⁻⁶ cm/s
Cc1cccc(N2CCN(C(=O)c3ccc4c(c3)C(O)CCCCCN4C)CC2)c1 (stereo not given)	< 1 ×10⁻⁶ cm/s
CCOC(=O)c1c(NC(=O)CN2CCCCC2)sc2c1CCN(C(=O)OCC)C2	> 1000 ×10⁻⁶ cm/s
CC(C)Nc1oc(-c2cccc3ccccc23)nc1C#N	> 1000 ×10⁻⁶ cm/s
CN(C)C(=O)c1cc(-c2ccc(S(C)(=O)=O)cc2)c2cnn(C)c2n1	22.6 ×10⁻⁶ cm/s
COc1ccc(-c2nc3sc(CCNC(=O)C(C)(C)C)c(C)n3n2)cc1	214 ×10⁻⁶ cm/s
CO[C@@H]1/C=C\O[C@@]2(C)Oc3c(C)c(O)c4c(c3C2=O)C(=N[C@H]2CC[C@H](O)O[C@@H]2C)C=C(NC(=O)/C(C)=C\C(=O)[C@@H]2C[C@@H]2[C@@H](O)[C@H](C)[C@@H](O)[C@H](C)[C@H](OC(C)=O)[C@@H]1C)C4=O	2.33 ×10⁻⁶ cm/s
CC(=O)N1CCC2(CCCN(c3ccc(-c4ccccc4)cc3)C2)CC1	> 1000 ×10⁻⁶ cm/s
Cc1csc2c1c(=O)n(O)c(=O)n2Cc1ccccc1	116 ×10⁻⁶ cm/s
COC(=O)c1ccnc(-c2cc(C(=O)NCCc3ccccc3)ccn2)c1	398 ×10⁻⁶ cm/s
CCc1nnc(NC(=O)c2nc(S(=O)(=O)Cc3ccc(C)cc3)ncc2Cl)s1	32.9 ×10⁻⁶ cm/s
Cc1cc(/C=C2/C(=O)Nc3ccccc32)cc(C)c1O	976 ×10⁻⁶ cm/s
CCOC(=O)c1nn(-c2ccccc2)c(=O)c2c(N)scc12	> 1000 ×10⁻⁶ cm/s
Cc1c(C(=O)NN2CCCCC2)nn(-c2ccc(Cl)cc2Cl)c1-c1ccc(Cl)cc1	> 1000 ×10⁻⁶ cm/s
CCc1ccc2oc(NC3=NC(c4[nH]ncc4Cl)C4=C(CCCC4=O)N3)nc2c1 (stereo not given)	916 ×10⁻⁶ cm/s
Fc1ccc(Nc2nccc(-c3ccncc3)n2)cc1F	> 1000 ×10⁻⁶ cm/s
O=C(Nc1ncnc2sc3c(c12)CCCCC3)c1ccco1	> 1000 ×10⁻⁶ cm/s

SMILES	Papp
Cc1nc2nc(NC(=O)c3ccc(C(C)(C)C)cc3)[nH]n2c(=O)c1Cl	8.91 ×10⁻⁶ cm/s
O=C(c1nc(-c2cccnc2)c2ccccn12)N1CCOCC1	206 ×10⁻⁶ cm/s
Cc1ccccc1NC(=O)Nc1cccs1	106 ×10⁻⁶ cm/s
CCCc1c(CC)c(=N)c2ccccc2n1C	6.67 ×10⁻⁶ cm/s
CCOc1ccc(CCNC(=O)c2cc3c(s2)CCC3)cc1OCC	> 1000 ×10⁻⁶ cm/s
O=c1c2ccccc2nc(/C=C/c2cccnc2)n1Cc1ccccc1	> 1000 ×10⁻⁶ cm/s
O=c1[nH]c(N2CCOCC2)nc2c1CCN(Cc1ccc(Cl)cc1F)CC2	> 1000 ×10⁻⁶ cm/s
Fc1cnc(-c2ccccc2C(F)F)nc1NCC1CCN(c2cnccn2)C1 (stereo not given)	> 1000 ×10⁻⁶ cm/s
COc1c(O)ccc2c1CN1CCc3cc4c(cc3[C@@H]1C2)OCO4	> 1000 ×10⁻⁶ cm/s
O=C(NCc1ccco1)c1nc2nc(-c3cccs3)cc(C(F)(F)F)n2n1	257 ×10⁻⁶ cm/s
Cc1noc(C)c1-c1cc2c(cc(C)n2C)c(-c2cnn(C)c2)n1	549 ×10⁻⁶ cm/s
CC(C)c1c(-c2ccccc2)nc2c(C#N)c[nH]n2c1=O	9.91 ×10⁻⁶ cm/s
O=C(c1ccc2c(c1)ncn2-c1cccc(C(F)(F)F)c1)N1CCCCC1	> 1000 ×10⁻⁶ cm/s
CCOc1cc2ncc(C#N)c(Nc3ccc(OCc4ccccn4)c(Cl)c3)c2cc1NC(=O)C=CCN(C)C	< 1 ×10⁻⁶ cm/s
CC(C)(O)Cn1c(NC(=O)c2ccc(-c3cn[nH]c3)s2)nc2cc(CN3CCOCC3)ccc21	368 ×10⁻⁶ cm/s
COc1ccc(NC(=O)c2[nH]c(C)c(C(C)=O)c2C)cc1	377 ×10⁻⁶ cm/s
O=C(c1ccc2c(c1)ncn2-c1ccc(Cl)cc1)N1CCCCC1	> 1000 ×10⁻⁶ cm/s
Fc1ccc(Cc2nc3nccc(-c4cccs4)n3n2)cc1	> 1000 ×10⁻⁶ cm/s
C=C1C(=O)O[C@@H]2[C@H]3O[C@]3(C)CC/C=C(\C)CC[C@@H]12	> 1000 ×10⁻⁶ cm/s
CC(=O)NCCNC[C@@H]1C=C(C)[C@H](Cc2nnc(-c3ccccc3)o2)C[C@H]1C(C)C	624 ×10⁻⁶ cm/s
O=C(O)CCC(=O)Nc1nc(-c2ccccc2)cs1	< 1 ×10⁻⁶ cm/s
CNc1oc(-c2cccc(-c3ccccc3)c2)nc1C#N	918 ×10⁻⁶ cm/s
CC(=O)c1c(C)c(C(=O)Nc2cccc([S+](=O)([O-])N3CCCCCC3)c2)n(C)c1C	> 1000 ×10⁻⁶ cm/s
CC(=O)Nc1ccc(S(=O)(=O)Nc2nccs2)cc1	< 1 ×10⁻⁶ cm/s
COC(=O)CNC(=O)c1nc(-c2ccc(Cl)nc2)c2cnccn12	103 ×10⁻⁶ cm/s
CCN(CC)CCOc1ccc2c(=O)c3ccc(Cl)cc3n(CCN(CC)CC)c2c1	> 1000 ×10⁻⁶ cm/s
Cc1cc(-c2nnc3n2CCCCC3)c(C)n1-c1ccc(C#N)cc1	215 ×10⁻⁶ cm/s

Next, values leading:

Papp	SMILES
35.6 ×10⁻⁶ cm/s	Cc1ccc(-c2csc(NC(=O)c3ccccc3NS(=O)(=O)c3ccc(C)cc3)n2)cc1
11 ×10⁻⁶ cm/s	Cc1ccc(S(=O)(=O)Nc2ccc(C(=O)Nc3nc(-c4ccc(Cl)cc4)cs3)cc2)cc1
641 ×10⁻⁶ cm/s	COc1cc(/C=C(\C#N)c2nc3ccccc3[nH]2)ccc1OCc1ccc(F)cc1
38 ×10⁻⁶ cm/s	Cc1ccc(S(=O)(=O)Nc2cnccc2C(=O)Nc2nc(-c3cccc(Cl)c3)cs2)cc1
92.9 ×10⁻⁶ cm/s	COc1cc2c(Oc3ccc(-c4cnc(Nc5ccc(F)cc5)n(C)c4=O)cc3F)ccnc2cc1OCCCN1CCOCC1
827 ×10⁻⁶ cm/s	CCCCN(CC)CCCNC(=O)c1ccc2c(c1)N(Cc1ccc(C)cc1)C(=O)c1ccccc1S2
> 1000 ×10⁻⁶ cm/s	Cc1ccccc1S(=O)(=O)Nc1cnccc1C(=O)Nc1nc(-c2ccccc2)cs1
21.8 ×10⁻⁶ cm/s	NC1CCC(Nc2nc(Nc3ccc(C(=O)N4CCCCC4)cc3)c3ncn(-c4cccc(F)c4)c3n2)CC1 (stereo not given)
9.3 ×10⁻⁶ cm/s	Cc1cc(C)cc(NS(=O)(=O)c2ccc3[nH]cc(C(=O)NCc4ccco4)c(=O)c3c2)c1
173 ×10⁻⁶ cm/s	COc1ccccc1Nc1ccnc(N2CCN(C(=O)c3ccccc3Cl)CC2)n1
> 1000 ×10⁻⁶ cm/s	Brc1ccccc1-c1nc(NCc2ccc(-c3cccnc3)cc2)c2ccccc2n1
> 1000 ×10⁻⁶ cm/s	Cc1ccc(S(=O)(=O)Nc2ccccc2C(=O)Nc2ccc(-c3ccccc3)nn2)cc1
396 ×10⁻⁶ cm/s	COc1ccc(Nc2cnc3ccc(-c4ccc(OC)c(OC)c4)nn23)cc1
1.79 ×10⁻⁶ cm/s	COc1cccc(CNc2ccc(S(=O)(=O)Nc3ccc(C4CCNCC4)cc3)cc2)c1O
240 ×10⁻⁶ cm/s	O=C(Nc1ccc(Cl)cc1)Nc1ccc(Cl)c(Cl)c1
< 1 ×10⁻⁶ cm/s	Cc1ccccc1C(=O)N1CCc2cc(-c3nc(NC(=O)Cc4ccc5ccccc5c4)sc3C)ccc21
11.8 ×10⁻⁶ cm/s	Cc1ccc(-c2cc(C(=O)Nc3cccc(S(N)(=O)=O)c3)c3ccccc3n2)cc1C
< 1 ×10⁻⁶ cm/s	CCCc1ccc(C(=O)NC(=O)c2ccccc2O)cc1
569 ×10⁻⁶ cm/s	Fc1ccc(CNc2nc(-c3ccncc3)nc3ccccc23)cc1F
> 1000 ×10⁻⁶ cm/s	Cc1cccc(-n2cnc3cc(C(=O)N4CCC(Br)CC4)ccc32)c1
285 ×10⁻⁶ cm/s	Cc1ccc(-c2cc(C(=O)Nc3ccc(C#N)cc3)c3ccccc3n2)cc1C
10.6 ×10⁻⁶ cm/s	O=S(=O)(Nc1nccs1)c1ccc(Nc2nc(-c3ccc(F)cc3)cs2)cc1
> 1000 ×10⁻⁶ cm/s	CC1(C)CC2CC(C)(CN2S(=O)(=O)c2ccc(C(=O)Nc3ccc(Cl)cc3)cc2)C1 (stereo not given)
396 ×10⁻⁶ cm/s	O=c1cc(-c2nc(Nc3ccc(F)c(F)c3)c3ccccc3n2)cc[nH]1
406 ×10⁻⁶ cm/s	NC(=O)C1CCN(c2nc(-c3ccc4ccccc4c3)cs2)CC1

Papp	SMILES
329 ×10⁻⁶ cm/s	COc1ccc(C2Nc3ccccc3C(=O)N2Cc2ccco2)cc1COc1ccc(NC(C)=O)cc1 (stereo not given)
11.9 ×10⁻⁶ cm/s	COc1ccc(Nc2nnc(-c3ccc(C)c(S(=O)(=O)NCc4nc5ccccc5[nH]4)c3)c3ccccc23)cc1
537 ×10⁻⁶ cm/s	O=S(=O)(Nc1ccccc1)c1ccc(NCc2ccc(Br)cc2O)cc1
82 ×10⁻⁶ cm/s	COc1ccc(NC2=C(c3ccc(C(F)(F)F)cc3)C(=O)c3ccccc32)cc1
> 1000 ×10⁻⁶ cm/s	CCOc1ccc(CNc2ccc3c(c2)ncn3C)cc1
19.3 ×10⁻⁶ cm/s	COc1ccc(CNc2ccc(S(=O)(=O)Nc3nccs3)cc2)cc1O
> 1000 ×10⁻⁶ cm/s	CCOc1ccccc1CNS(=O)(=O)c1ccc(-c2cnc(C3CC3)o2)cc1
3 ×10⁻⁶ cm/s	Cc1ccc(-c2cc(C(=O)Nc3ccc(-c4noc(=O)[nH]4)cc3)c3ccccc3n2)cc1C
459 ×10⁻⁶ cm/s	N#Cc1ccc(-c2ccc(CNc3ccc(C4CCNCC4)cc3)o2)cc1
68.3 ×10⁻⁶ cm/s	CCOC(=O)Nc1ccc(NCc2ccc(F)cc2)nc1N
167 ×10⁻⁶ cm/s	Cc1ccccc1C(=O)Nc1sc2c(c1C(=O)NCc1ccco1)CCC(C(C)(C)C)C2 (stereo not given)
> 1000 ×10⁻⁶ cm/s	Cc1nnc(-c2ccccc2C(C)C)nc1NCc1ccc(-c2cccnc2)cc1
< 1 ×10⁻⁶ cm/s	Cc1ccc(C)c(NC2=C(c3ccc(C(F)(F)F)cc3)C(=O)c3ccccc32)c1
592 ×10⁻⁶ cm/s	O=C(COc1ccccc1)NCC(c1cccs1)S(=O)(=O)c1ccc(Cl)cc1 (stereo not given)
392 ×10⁻⁶ cm/s	CCN(C(=O)C(NS(=O)(=O)c1ccc(Br)s1)c1ccccc1)c1ccc(C)c(C)c1 (stereo not given)
1.2 ×10⁻⁶ cm/s	Cc1ccc(S(=O)(=O)c2cnc(SC(C)C(=O)Nc3ccccc3)[nH]c2=O)cc1 (stereo not given)
> 1000 ×10⁻⁶ cm/s	COc1ccc(-c2nc3ccccc3c(=O)n2Cc2ccccc2)cc1COc1ccc(NC(C)=O)cc1
390 ×10⁻⁶ cm/s	CC1=C(C(=O)Nc2ccccc2C)C(c2ccccc2Br)N=C(Nc2nc3ccccc3o2)N1 (stereo not given)
3.4 ×10⁻⁶ cm/s	NS(=O)(=O)c1ccc(Cc2c(-c3cccc(-c4ccccc4)c3)nn(-c3nc(C(=O)O)cs3)c2CC2CC2)cc1
381 ×10⁻⁶ cm/s	Cc1nn2c(c1-c1ccccc1-c1ccccc1)N(Cc1ccccc1)CCC2
< 1 ×10⁻⁶ cm/s	CCOc1ccc(CCNC(=O)c2cc3sccc3n2Cc2ccccc2)c(F)c1OCC
20.3 ×10⁻⁶ cm/s	Cc1ccc(S(=O)(=O)Nc2cnccc2C(=O)NCCc2ccccc2)cc1
6.3 ×10⁻⁶ cm/s	O=[S+]([O-])(Nc1ccc(C2CCNCC2)cc1)c1ccc(NCc2ccc(Br)cc2O)cc1
15.5 ×10⁻⁶ cm/s	Cc1ccc(Nc2nc(-c3ccncc3)nc3ccccc23)cc1F
927 ×10⁻⁶ cm/s	CCOc1ccc(NC(=O)CC2C(=O)N(c3ccc(F)cc3)C(=O)N2CCc2sccc2C)cc1 (stereo not given)
